Results taken from PubChem BioAssay AID330 (DTP/NCI, 2004).
Several values for one entry are separate records, joined by “and”; a condition that tells them apart may be missing. Equal values may be shown once. Inconclusive results and toxic doses are left out. The calls were made as follows: active = survival T/C of 150% or more; inactive = T/C below 125% in these data.

Tested on: P388 leukemia ip, CD2F1 mice, survival T/C
Experiment: NCI In Vivo Anticancer Drug Screen. Data for tumor model P388 Leukemia (intraperitoneal) in CD2F1 (CDF1) mice
Conditions: endpoint: median survival time, higher = longer survival
Method in brief: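 Mice carrying the transplanted tumor received test compound or vehicle. Survival was recorded in each group, and the value is the treated-group measurement divided by that of the vehicle-treated control group.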

[1] = dose: 60.0 mg/kg/injection, schedule: Q01DX005 (ip), vehicle: Klucel (hydroxypropylcellulose) (HPC)
[2] = dose: 120.0 mg/kg/injection, schedule: Q01DX005 (ip), vehicle: Klucel (hydroxypropylcellulose) (HPC)
[3] = dose: 240.0 mg/kg/injection, schedule: Q01DX005 (ip), vehicle: Klucel (hydroxypropylcellulose) (HPC)
[4] = dose: 50.0 mg/kg/injection, schedule: Q01DX005 (ip), vehicle: Klucel (hydroxypropylcellulose) (HPC)
[5] = dose: 100.0 mg/kg/injection, schedule: Q01DX005 (ip), vehicle: Klucel (hydroxypropylcellulose) (HPC)
[6] = dose: 200.0 mg/kg/injection, schedule: Q01DX005 (ip), vehicle: Klucel (hydroxypropylcellulose) (HPC)
[7] = dose: 25.0 mg/kg/injection, schedule: Q01DX005 (ip), vehicle: saline with Tween-80
[8] = dose: 50.0 mg/kg/injection, schedule: Q01DX005 (ip), vehicle: saline with Tween-80
[9] = dose: 100.0 mg/kg/injection, schedule: Q01DX005 (ip), vehicle: saline with Tween-80
[10] = dose: 50.0 mg/kg/injection, schedule: Q01DX009 (ip), vehicle: saline with Tween-80
[11] = dose: 100.0 mg/kg/injection, schedule: Q01DX009 (ip), vehicle: saline with Tween-80
[12] = dose: 0.25 mg/kg/injection, schedule: Q01DX009 (ip), vehicle: saline
[13] = dose: 0.5 mg/kg/injection, schedule: Q01DX009 (ip), vehicle: saline
[14] = dose: 1.0 mg/kg/injection, schedule: Q01DX009 (ip), vehicle: saline
[15] = dose: 50.0 mg/kg/injection, schedule: Q01DX009 (ip), vehicle: Klucel (hydroxypropylcellulose) (HPC)
[16] = dose: 100.0 mg/kg/injection, schedule: Q01DX009 (ip), vehicle: Klucel (hydroxypropylcellulose) (HPC)
[17] = dose: 200.0 mg/kg/injection, schedule: Q01DX009 (ip), vehicle: Klucel (hydroxypropylcellulose) (HPC)
[18] = dose: 400.0 mg/kg/injection, schedule: Q01DX009 (ip), vehicle: Klucel (hydroxypropylcellulose) (HPC)
[19] = dose: 200.0 mg/kg/injection, schedule: Q01DX005 (ip), vehicle: saline with Tween-80
[20] = dose: 12.5 mg/kg/injection, schedule: Q01DX009 (ip), vehicle: saline with Tween-80
[21] = dose: 25.0 mg/kg/injection, schedule: Q01DX009 (ip), vehicle: saline with Tween-80

Measured: T/C

C=CCN(C#N)CC=C
inactive: dose: 50.0 mg/kg/injection, schedule: Q01DX009 (ip), vehicle: saline 96 % of control

Brc1ccc2c(ccc3c2nnc2nccn23)c1
inactive: [1] 91 % of control and 95 % of control | [2] 97 % of control | [3] 86 % of control and 94 % of control

CCNS(=O)(=O)c1ccc2c(c1)nc(SC)n2CC
inactive: [1] 104 % of control | [2] 105 % of control | [3] 104 % of control

C[C@@]12O[C@]1(C)[C@@H]1[C@H]3O[C@H]3[C@@H]2N(C(=O)OCC(Cl)(Cl)Cl)N1C(=O)OCC(Cl)(Cl)Cl
inactive: [4] 100 % of control | [5] 105 % of control | [6] 100 % of control

CC(=O)N1C=Cc2ccccc2C1(Br)C1(Br)c2ccccc2C=CN1C(C)=O (configuration not stated)
inactive: [7] 97 % of control | [8] 99 % of control | [9] 89 % of control

CCn1c2ccccc2c2cc(N=Nc3ccc4c(c3)c3ccccc3n4CC)ccc21
inactive: [10] 105 % of control | [11] 113 % of control

CN1CCc2cc3c4cc2C1Cc1ccc(O)c(c1)Oc1ccc(cc1)CC1c2c(cc(O)c(c2O4)O3)CCN1C (configuration not stated)
inactive: [12] 103 % of control | [13] 110 % of control | [14] 103 % of control | dose: 2.0 mg/kg/injection, schedule: Q01DX009 (ip), vehicle: saline 100 % of control | dose: 4.0 mg/kg/injection, schedule: Q01DX009 (ip), vehicle: saline 94 % of control

O=C1c2ccccc2C(=O)N1SN1C(=O)c2ccccc2C1=O
inactive: [15] 110 % of control | [16] 109 % of control | [17] 102 % of control | [18] 109 % of control

Cc1nnc2c3[nH]c4ccccc4c3c(Cl)nn12
inactive: [4] 99 % of control | [5] 92 % of control | [6] 98 % of control

CCCCN(CCCC)CCCNc1nccc2ccccc12
inactive: dose: 6.25 mg/kg/injection, schedule: Q01DX005 (ip), vehicle: saline with Tween-80 106 % of control | dose: 12.5 mg/kg/injection, schedule: Q01DX005 (ip), vehicle: saline with Tween-80 103 % of control | [7] 106 % of control

O=C(NCN1CCCCC1)c1ccccc1
inactive: [7] 93 % of control and 95 % of control | [8] 98 % of control and 101 % of control and 105 % of control | [9] 102 % of control and 104 % of control | [19] 102 % of control and 113 % of control

CN(C)c1ccc(CN2CCCN(Cc3ccc(N(C)C)cc3)C2c2cc(Cl)ccc2O)cc1
inactive: [11] 95 % of control | dose: 200.0 mg/kg/injection, schedule: Q01DX009 (ip), vehicle: saline with Tween-80 90 % of control | dose: 400.0 mg/kg/injection, schedule: Q01DX009 (ip), vehicle: saline with Tween-80 90 % of control

CN(O)C(=O)CNC(=O)OC(C)(C)C
inactive: [8] 100 % of control | [9] 98 % of control | [19] 100 % of control | dose: 400.0 mg/kg/injection, schedule: Q01DX005 (ip), vehicle: saline with Tween-80 105 % of control

O=C(Nc1cc(Nc2ccc(NC(=O)c3ccccc3)c3c2C(=O)c2ccccc2C3=O)cc2c1C(=O)c1ccccc1C2=O)c1ccccc1
inactive: [4] 103 % of control | [5] 103 % of control | [6] 97 % of control

Cc1nc2c([N+](=O)[O-])c(N3CCCCC3)c([N+](=O)[O-])cc2[nH]1
inactive: dose: 100.0 mg/kg/injection, schedule: Q04DX002 (ip), vehicle: saline with Tween-80 101 % of control | dose: 200.0 mg/kg/injection, schedule: Q04DX002 (ip), vehicle: saline with Tween-80 104 % of control

COc1ccc(C[n+]2cc([O-])on2)cc1
inactive: dose: 6.25 mg/kg/injection, schedule: Q01DX009 (ip), vehicle: saline with Tween-80 100 % of control | [20] 100 % of control | [21] 100 % of control and 104 % of control and 95 % of control | [10] 122 % of control | dose: 66.0 mg/kg/injection, schedule: Q01DX009 (ip), vehicle: saline with Tween-80 118 % of control and 122 % of control

CC1=NN(C(=O)c2ccc(Cl)cc2)C(=O)C1N=Nc1ccc(S(=O)(=O)Nc2nc(C)cc(C)n2)cc1 (configuration not stated)
inactive: dose: 100.0 mg/kg/injection, schedule: Q01DX001 (ip), vehicle: saline with Tween-80 92 % of control | dose: 200.0 mg/kg/injection, schedule: Q01DX001 (ip), vehicle: saline with Tween-80 86 % of control | dose: 400.0 mg/kg/injection, schedule: Q01DX001 (ip), vehicle: saline with Tween-80 89 % of control

COCCc1nnnn1C
inactive: [8] 102 % of control | [9] 98 % of control | [19] 114 % of control

CCOC(=O)C1(C)C(=O)CC2c3nc4ccccc4cc3CN2C1=O (configuration not stated)
inactive: [16] 95 % of control | [17] 95 % of control | [18] 104 % of control

C[N+](C)(CCCCCC[N+](C)(C)C1c2ccccc2-c2ccccc21)C1c2ccccc2-c2ccccc21
inactive: dose: 0.13 mg/kg/injection, schedule: Q01DX009 (ip), vehicle: saline 105 % of control | [12] 105 % of control | [13] 102 % of control | [14] 101 % of control

O=C1c2cc(F)ccc2OC2CCON12 (configuration not stated)
inactive: dose: 100.0 mg/kg/injection, schedule: Q01DX001 (ip), vehicle: Klucel (hydroxypropylcellulose) (HPC) 97 % of control | dose: 200.0 mg/kg/injection, schedule: Q01DX001 (ip), vehicle: Klucel (hydroxypropylcellulose) (HPC) 97 % of control | dose: 400.0 mg/kg/injection, schedule: Q01DX001 (ip), vehicle: Klucel (hydroxypropylcellulose) (HPC) 103 % of control

COC1CCC2=C(C1)C(=O)CC1c3ccccc3CN21 (configuration not stated)
inactive: [20] 100 % of control | [21] 100 % of control | [10] 100 % of control

O=C1NN2CCN=C2c2cccnc21
inactive: dose: 3.75 mg/kg/injection, schedule: Q01DX005 (ip), vehicle: saline with Tween-80 100 % of control | dose: 7.5 mg/kg/injection, schedule: Q01DX005 (ip), vehicle: saline with Tween-80 95 % of control | dose: 15.0 mg/kg/injection, schedule: Q01DX005 (ip), vehicle: saline with Tween-80 100 % of control and 93 % of control | dose: 60.0 mg/kg/injection, schedule: Q01DX005 (ip), vehicle: saline with Tween-80 101 % of control

O=c1[nH]c(=O)n(-c2cccc3ccccc23)c(=O)n1-c1cccc2ccccc12
inactive: [15] 100 % of control | [16] 108 % of control | [17] 105 % of control
